In brackets after ≈: the same amount, converted by molar mass. Where two headings read alike, the source gives them in different places.
Assays:
[1] = tested on: C. albicans; assay: Antifungal Activity Assay (broth microtiter MIC), C. albicans; assay type: cell-based, Candida albicans; conditions: Candida albicans, ATCC90028, 48 h
Method in brief: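 Endpoint: lowest concentration visibly inhibiting growth relative to control after 48 h. Inoculum of 2.5×10^3 CFU/mL final in RPMI 1640+MOPS, prepared from overnight 35° C agar cultures; test compounds diluted in water to 128 μg/mL before plating.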

[2] = tested on: Collectotrichum graminicola (Cg); assay: Growth inhibition assay of fungal pathogens, Cg; assay type: cell-based; conditions: 48 h
Method in brief: (§1)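 Spores diluted in 17% V8 liquid media and incubated with compound at final 50, 10, 2 ppm or 2, 0.4, 0.08 ppm (2% DMSO). OD600 plus visual ratings at 24 and 48 hours, blank-subtracted; percent growth inhibition from 48 h readings relative to 2% DMSO control.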

[3] = tested on: Diplodia maydis (Dm); assay: Growth inhibition assay of fungal pathogens, Dm; assay type: cell-based; conditions: Stenocarpella maydis, 48 h
Method in brief: as §1

[4] = read-out: MIC, C. albicans ATCC 90028, Table 3a, 3 replicates, MIC recorded at 48 h
[5] = read-out: MIC, C. albicans ATCC 90028, Table 3b (additional results), 3 replicates, MIC recorded at 48 h
[6] = read-out: Concentration at 90% Inhibition Cg, Collectotrichum graminicola, growth inhibition at 48 hours vs 2% DMSO control
[7] = read-out: Concentration at 90% Inhibition Cg, Collectotrichum graminicola, growth inhibition vs 2% DMSO control at 48 hours
[8] = read-out: Concentration at 90% Inhibition Dm, Diplodia maydis, growth inhibition at 48 hours vs 2% DMSO control
[9] = read-out: Concentration at 90% Inhibition Dm, Diplodia maydis, growth inhibition vs 2% DMSO control at 48 hours
[10] = Table 3a, ATCC 90028, 3 replicates, MIC recorded at 48 h, read-out: MIC, C. albicans ATCC 90028
[11] = Table 3b (additional results), ATCC 90028, 3 replicates, MIC recorded at 48 h, read-out: MIC, C. albicans ATCC 90028
[12] = Collectotrichum graminicola, growth inhibition at 48 hours vs 2% DMSO control, read-out: Concentration at 90% Inhibition Cg
[13] = Collectotrichum graminicola, growth inhibition vs 2% DMSO control at 48 hours, read-out: Concentration at 90% Inhibition Cg
[14] = Diplodia maydis, growth inhibition at 48 hours vs 2% DMSO control, read-out: Concentration at 90% Inhibition Dm
[15] = Diplodia maydis, growth inhibition vs 2% DMSO control at 48 hours, read-out: Concentration at 90% Inhibition Dm

| Structure (SMILES) | MIC [1, 4] [µg/mL] | MIC [1, 5] [µg/mL] | IC90 [2, 6] [µg/mL] | IC90 [2, 7] [µg/mL] | IC90 [3, 8] [µg/mL] | IC90 [3, 9] [µg/mL] | MIC [1, 10] [µg/mL] | MIC [1, 11] [µg/mL] | IC90 [2, 12] [µg/mL] | IC90 [2, 13] [µg/mL] | IC90 [3, 14] [µg/mL] | IC90 [3, 15] [µg/mL] |
| --- | --- | --- | --- | --- | --- | --- | --- | --- | --- | --- | --- | --- |
| COc1ccc(F)cc1[C@H](Cn1c(=O)n(C(C)(C)C(=O)NC(C)C)c(=O)c2c(C)c(-n3nccn3)sc21)OC[C@H](C)O [Compound I-47, 2-(1-((R)-2-(5-fluoro-2-methoxyphenyl)-2-((S)-2-hydroxypropoxy)ethyl)-5-methyl-2,4-dioxo-6-(2H-1,2,3-triazol-2-yl)-1,4-dihydro-thieno[2,3-d]pyrimidin-3(2H)-yl)-N-isopropyl-2-methylpropanamide] | 0.25 to 1 (≈ 0.415 to 1.66 µM) | 0.25 to 1 (≈ 0.415 to 1.66 µM) | 0.4 (≈ 0.664 µM) | 0.4 (≈ 0.664 µM) | 0.4 (≈ 0.664 µM) | 0.4 (≈ 0.664 µM) | – | – | – | – | – | – |
| COc1ccc(F)cc1[C@H](Cn1c(=O)n(C(C)(C)C(=O)N2CCCC2)c(=O)c2c(C)c(-n3nccn3)sc21)OC[C@H](C)O [Compound I-48, 1-((R)-2-(5-fluoro-2-methoxyphenyl)-2-((S)-2-hydroxy-propoxy)ethyl)-5-methyl-3-(2-methyl-1-oxo-1-(pyrrolidin-1-yl)propan-2-yl)-6-(2H-1,2,3-triazol-2-yl)thieno[2,3-d]pyrimidine-2,4(1H,3H)-dione] | – | – | – | – | – | – | 1.1 to 2 (≈ 1.79 to 3.25 µM) | 0.25 to 1 (≈ 0.407 to 1.63 µM) | 0.4 (≈ 0.651 µM) | 0.4 (≈ 0.651 µM) | 2 (≈ 3.25 µM) | 2 (≈ 3.25 µM) |
| COc1ccc(F)cc1[C@H](Cn1c(=O)n(C(C)(C)C(=O)N(C)C)c(=O)c2c(C)c(-n3nccn3)sc21)OC(C)C [Compound I-49, (R)-2-(1-(2-(5-fluoro-2-methoxyphenyl)-2-isopropoxy-ethyl)-5-methyl-2,4-dioxo-6-(2H-1,2,3-triazol-2-yl)-1,4-dihydrothieno[2,3-d]pyrimi-din-3(2H)-yl)-N,N,2-trimethylpropanamide] | 2.1 to 4 (≈ 3.67 to 6.98 µM) | 1.01 to 2 (≈ 1.76 to 3.49 µM) | 10 (≈ 17.5 µM) | > 50 | 2 (≈ 3.49 µM) | 2 (≈ 3.49 µM) | – | – | – | – | – | – |
| CNC(=O)C(C)(C)n1c(=O)c2c(C)c(-n3nccn3)sc2n(C[C@H](OC(C)C)c2cc(F)ccc2OC)c1=O [Compound I-50, (R)-2-(1-(2-(5-fluoro-2-methoxyphenyl)-2-isopropoxy-ethyl)-5-methyl-2,4-dioxo-6-(2H-1,2,3-triazol-2-yl)-1,4-dihydrothieno[2,3-d]pyrimidin-3(2H)-yl)-N,2-dimethylpropanamide] | 1.1 to 2 (≈ 1.97 to 3.58 µM) | 1.01 to 2 (≈ 1.81 to 3.58 µM) | 2 (≈ 3.58 µM) | 10 (≈ 17.9 µM) | 10 (≈ 17.9 µM) | > 50 | – | – | – | – | – | – |
| COc1ccc(F)cc1[C@H](Cn1c(=O)n(C(C)(C)C(=O)N2CC=CC2)c(=O)c2c(C)c(-n3nccn3)sc21)OC(C)C [Compound I-51, (R)-3-(1-(2,5-dihydro-1H-pyrrol-1-yl)-2-methyl-1-oxopropan-2-yl)-1-(2-(5-fluoro-2-methoxyphenyl)-2-isopropoxyethyl)-5-methyl-6-(2H-1,2,3-triazol-2-yl)thieno[2,3-d]pyrimidine-2,4(1H,3H)-dione] | – | – | – | – | – | – | 0.25 to 1 (≈ 0.419 to 1.68 µM) | 1.01 to 2 (≈ 1.69 to 3.35 µM) | 0.08 (≈ 0.134 µM) | 0.08 (≈ 0.134 µM) | 0.08 (≈ 0.134 µM) | 0.08 (≈ 0.134 µM) |
| COc1ccc(F)cc1[C@H](Cn1c(=O)n(C(C)(C)C(=O)NCC#N)c(=O)c2c(C)c(-n3nccn3)sc21)OC(C)C [Compound I-52, (R)—N-(cyanomethyl)-2-(1-(2-(5-fluoro-2-methoxyphenyl)-2-isopropoxyethyl)-5-methyl-2,4-dioxo-6-(2H-1,2,3-triazol-2-yl)-1,4-dihydro-thieno[2,3-d]pyrimidin-3(2H)-yl)-2-methylpropanamide] | 2.1 to 4 (≈ 3.6 to 6.85 µM) | 1.01 to 2 (≈ 1.73 to 3.43 µM) | 10 (≈ 17.1 µM) | > 50 | 10 (≈ 17.1 µM) | > 50 | – | – | – | – | – | – |
| Cc1c(-n2nccn2)sc2c1c(=O)n(C(C)(C)C(=O)NC(C)C)c(=O)n2C[C@H](OC(C)C)c1cc(F)ccc1OCCO [Compound I-53, (R)-2-(1-(2-(5-fluoro-2-(2-hydroxyethoxy)phenyl)-2-isopropoxyethyl)-5-methyl-2,4-dioxo-6-(2H-1,2,3-triazol-2-yl)-1,4-dihydrothieno[2,3-d]pyrimidin-3(2H)-yl)-N-isopropyl-2-methylpropanamide] | – | – | – | – | – | – | 0.25 to 1 (≈ 0.405 to 1.62 µM) | 0.25 to 1 (≈ 0.405 to 1.62 µM) | 0.4 (≈ 0.649 µM) | 0.4 (≈ 0.649 µM) | 0.4 (≈ 0.649 µM) | 0.4 (≈ 0.649 µM) |
| COCCOc1ccc(F)cc1[C@H](Cn1c(=O)n(C(C)(C)C(=O)NC(C)C)c(=O)c2c(C)c(-n3nccn3)sc21)OC(C)C [Compound I-54, (R)-2-(1-(2-(5-fluoro-2-(2-methoxyethoxy)phenyl)-2-isopropoxyethyl)-5-methyl-2,4-dioxo-6-(2H-1,2,3-triazol-2-yl)-1,4-dihydrothieno[2,3-d]pyrimidin-3(2H)-yl)-N-isopropyl-2-methylpropanamide] | – | – | – | – | – | – | 0.25 to 1 (≈ 0.396 to 1.59 µM) | 0.25 to 1 (≈ 0.396 to 1.59 µM) | 0.4 (≈ 0.634 µM) | 0.4 (≈ 0.634 µM) | 0.08 (≈ 0.127 µM) | 0.08 (≈ 0.127 µM) |
| Cc1c(-n2nccn2)sc2c1c(=O)n(C(C)(C)C(=O)NC(C)C)c(=O)n2C[C@H](OC(C)C)c1cc(F)ccc1OCC1COC1 [Compound I-55, (R)-2-(1-(2-(5-fluoro-2-(oxetan-3-ylmethoxy)phenyl)-2-isopropoxyethyl)-5-methyl-2,4-dioxo-6-(2H-1,2,3-triazol-2-yl)-1,4-dihydrothieno[2,3-d]pyrimidin-3(2H)-yl)-N-isopropyl-2-methylpropanamide] | – | – | – | – | – | – | 0.25 to 1 (≈ 0.389 to 1.56 µM) | 1.01 to 2 (≈ 1.57 to 3.11 µM) | 0.4 (≈ 0.622 µM) | 0.4 (≈ 0.622 µM) | 0.4 (≈ 0.622 µM) | 0.4 (≈ 0.622 µM) |
| Cc1c(-n2nccn2)sc2c1c(=O)n(C(C)(C)C(=O)NC(C)C)c(=O)n2C[C@H](OC(C)C)c1cc(F)ccc1OCC#N [Compound I-56, (R)-2-(1-(2-(2-(cyanomethoxy)-5-fluorophenyl)-2-isopropoxyethyl)-5-methyl-2,4-dioxo-6-(2H-1,2,3-triazol-2-yl)-1,4-dihydrothieno[2,3-d]pyrimidin-3(2H)-yl)-N-isopropyl-2-methylpropanamide] | 0.25 to 1 (≈ 0.409 to 1.63 µM) | 1.01 to 2 (≈ 1.65 to 3.27 µM) | 2 (≈ 3.27 µM) | 2 (≈ 3.27 µM) | 0.4 (≈ 0.654 µM) | 0.4 (≈ 0.654 µM) | – | – | – | – | – | – |
| COc1ccc(F)cc1[C@H](Cn1c(=O)n(C(C)(C)C(=O)N2CC=CC2)c(=O)c2c(C)c(-n3nccn3)sc21)OC1CCOCC1 [Compound I-62, (R)-3-(1-(2,5-dihydro-1H-pyrrol-1-yl)-2-methyl-1-oxopro-pan-2-yl)-1-(2-(5-fluoro-2-methoxyphenyl)-2-((tetrahydro-2H-pyran-4-yl)oxy)ethyl)-5-methyl-6-(2H-1,2,3-triazol-2-yl)thieno[2,3-d]pyrimidine-2,4(1H,3H)-dione] | – | – | – | – | – | – | 0.25 to 1 (≈ 0.391 to 1.57 µM) | 0.25 to 1 (≈ 0.391 to 1.57 µM) | 0.4 (≈ 0.626 µM) | 0.4 (≈ 0.626 µM) | 0.4 (≈ 0.626 µM) | 0.4 (≈ 0.626 µM) |
| COc1ccc(F)cc1[C@H](Cn1c(=O)n(C(C)(C)C(=O)N2CC=CC2)c(=O)c2c(C)c(-n3nccn3)sc21)OC[C@@H](C)O [Compound I-63, 3-(1-(2,5-dihydro-1H-pyrrol-1-yl)-2-methyl-1-oxopropan-2-yl)-1-((R)-2-(5-fluoro-2-methoxyphenyl)-2-((R)-2-hydroxypropoxy)ethyl)-5-methyl-6-(2H-1,2,3-triazol-2-yl)thieno[2,3-d]pyrimidine-2,4(1H,3H)-dione] | – | – | – | – | – | – | 0.25 to 1 (≈ 0.408 to 1.63 µM) | 1.01 to 2 (≈ 1.65 to 3.26 µM) | 0.4 (≈ 0.653 µM) | 0.4 (≈ 0.653 µM) | 2 (≈ 3.26 µM) | 2 (≈ 3.26 µM) |
| COCCO[C@@H](Cn1c(=O)n(C(C)C(=O)N2CCCC2)c(=O)c2c(C)c(-n3nccn3)sc21)c1cc(F)ccc1OC (stereo partly drawn) [Compound I-64, 1-((R)-2-(5-fluoro-2-methoxyphenyl)-2-(2-methoxy-ethoxy)ethyl)-5-methyl-3-(1-oxo-1-(pyrrolidin-1-yl)propan-2-yl)-6-(2H-1,2,3-triazol-2-yl)thieno[2,3-d]pyrimidine-2,4(1H,3H)-dione] | – | – | – | – | – | – | 2.1 to 4 (≈ 3.5 to 6.66 µM) | 2.01 to 4 (≈ 3.35 to 6.66 µM) | 10 (≈ 16.6 µM) | > 50 | 10 (≈ 16.6 µM) | > 50 |
| COCCO[C@@H](Cn1c(=O)n([C@H](C)C(=O)N2CCCC2)c(=O)c2c(C)c(-n3nccn3)sc21)c1cc(F)ccc1OC [Compound I-65, 1-((R)-2-(5-fluoro-2-methoxyphenyl)-2-(2-methoxy-ethoxy)ethyl)-5-methyl-3-((R)-1-oxo-1-(pyrrolidin-1-yl)propan-2-yl)-6-(2H-1,2,3-triazol-2-yl)thieno[2,3-d]pyrimidine-2,4(1H,3H)-dione] | – | – | – | – | – | – | 2.1 to 4 (≈ 3.5 to 6.66 µM) | 2.01 to 4 (≈ 3.35 to 6.66 µM) | 10 (≈ 16.6 µM) | > 50 | 10 (≈ 16.6 µM) | > 50 |
